In brackets after ≈: the same amount, converted by molar mass.
Columns and labels:
C. albicans = test: Minimum Inhibitory Concentrations (MICs) against C. albicans, NCCLS M27-A broth dilution; type: cell-based; conditions: Candida albicans, read-out: MIC
Experimental: For each compound synthesized, Minimum Inhibitory Concentrations (MICs) against C. albicans were determined as described in Reference Method for Broth Dilution Antifungal Susceptibility Testing of Yeasts, Approved Standard, NCCLS document M27-A (ISBN 1-56238-328-0), NCCLS, 940 West Valley Road, Suite 1400, Wayne, Pa. 19087, 1997.

[1] = Maximum non-lethal dose (NLD), single intravenous dose in mice; type: in vivo, Swiss-Webster male mice; conditions: test compounds as aspartate salts in 5% mannitol, AmB as FUNGIZONE
Experimental: A variety of the compounds synthesized as described in Section 5, supra, were tested in various in vivo assays, as described below. The results of the various assays are provided in TABLE 3, presented at the end of this section. In all of the in vivo assays described, the test compounds, in the form of the aspartate salts, were formulated in an aqueous vehicle (5% mannitol in sterile water; OSMITROL, Baxter Healthcare, Deerfield, Ill.), followed by appropriate dilutions. The formulations were prepared fresh before dosing.
AmB and AME were also tested for comparison. For AmB, the commercially available FUNGIZONE (Bristol-Meyers Squibb Co.) was used. Reported values are based upon the weight of the AmB active ingredient, not on the basis of the weight of the FUNGIZONE powder. AME was formulated in OSMITROL as described for the test compounds.
Maximum non-lethal dose (NLD) data were obtained for selected compounds. A single intravenous dose was administered to each of four mice (Swiss-Webster male mice; Simonsen Laboratories, Gilroy, Calif.) in several groups. The doses selected were based upon the NLDs of compounds of similar structures. After review of findings, higher or lower doses were administered and a NLD was determined. The results are tabulated in TABLE 3, below (NLD Acute Mice). The values for AmB and AME are provided for comparison

`CC1[C@H](C)OC(=O)C[C@H](O)C[C@H](O)CC[C@@H](O)[C@H](O)C[C@H](O)C[C@]2(O)C[C@H](O)C(C(=O)N3CCOCC3)C(C[C@@H](OC3O[C@H](C)[C@@H](O)[C@H](NC[C@@]4(O)OC[C@@H](O)[C@H](O)[C@@H]4O)[C@@H]3O)/C=C/C=C/C=C/C=C/C=C/C=C/C=C/[C@H](C)[C@H]1O)O2` (stereo partly shown) [Compound 137] gave an MIC (C. albicans) of 2 µg/mL (≈ 1.73 µM) and an NLD acute mice [1] of 5 mg/kg.
Work on `CC1[C@H](C)OC(=O)C[C@H](O)C[C@H](O)CC[C@@H](O)[C@H](O)C[C@H](O)C[C@]2(O)C[C@H](O)C(C(=O)NCC(O)CO)C(C[C@@H](OC3O[C@H](C)[C@@H](O)[C@H](NC[C@@]4(O)OC[C@@H](O)[C@@H](OC5O[C@H](CO)[C@@H](O)[C@H](O)[C@H]5O)[C@@H]4O)[C@@H]3O)/C=C/C=C/C=C/C=C/C=C/C=C/C=C/[C@H](C)[C@H]1O)O2` (stereo partly shown) [Compound 119] yielded an MIC (C. albicans) of 8 µg/mL (≈ 6.05 µM).
`CC1[C@H](C)OC(=O)C[C@H](O)C[C@H](O)CC[C@@H](O)[C@H](O)C[C@H](O)C[C@]2(O)C[C@H](O)C(C(=O)NCCN3CCCCC3)C(C[C@@H](OC3O[C@H](C)[C@@H](O)[C@H](NC[C@@]4(O)OC[C@@H](O)[C@@H](OC5O[C@H](CO)[C@@H](O)[C@H](O)[C@H]5O)[C@@H]4O)[C@@H]3O)/C=C/C=C/C=C/C=C/C=C/C=C/C=C/[C@H](C)[C@H]1O)O2` (stereo partly shown) [Compound 120] gave an MIC (C. albicans) of 8 µg/mL (≈ 5.89 µM).
In the case of `CC1[C@H](C)OC(=O)C[C@H](O)C[C@H](O)CC[C@@H](O)[C@H](O)C[C@H](O)C[C@]2(O)C[C@H](O)C(C(=O)NCC(O)CO)C(C[C@@H](OC3O[C@H](C)[C@@H](O)[C@H](NC[C@@]4(O)OC[C@@H](O)[C@@H](O)[C@@H]4O)[C@@H]3O)/C=C/C=C/C=C/C=C/C=C/C=C/C=C/[C@H](C)[C@H]1O)O2` (stereo partly shown) [Compound 105], the MIC (C. albicans) was 2 µg/mL (≈ 1.73 µM).
Work on `CC1[C@H](C)OC(=O)C[C@H](O)C[C@H](O)CC[C@@H](O)[C@H](O)C[C@H](O)C[C@]2(O)C[C@H](O)C(C(=O)NCC(O)C(O)C(O)C(O)CO)C(C[C@@H](OC3O[C@H](C)[C@@H](O)[C@H](NC[C@@]4(O)OC[C@@H](O)[C@@H](OC5O[C@H](CO)[C@@H](O)[C@H](O)[C@H]5O)[C@@H]4O)[C@@H]3O)/C=C/C=C/C=C/C=C/C=C/C=C/C=C/[C@H](C)[C@H]1O)O2` (stereo partly shown) [Compound 117] yielded an MIC (C. albicans) of 8 µg/mL (≈ 5.67 µM).
With `CC1[C@H](C)OC(=O)C[C@H](O)C[C@H](O)CC[C@@H](O)[C@H](O)C[C@H](O)C[C@]2(O)C[C@H](O)C(C(=O)NCCc3ccccn3)C(C[C@@H](OC3O[C@H](C)[C@@H](O)[C@H](NC[C@@]4(O)OC[C@@H](O)[C@H](O)[C@@H]4O)[C@@H]3O)/C=C/C=C/C=C/C=C/C=C/C=C/C=C/[C@H](C)[C@H]1O)O2` (stereo partly shown) [Compound 109] the MIC (C. albicans) was 2 µg/mL (≈ 1.68 µM).
`CC1[C@H](C)OC(=O)C[C@H](O)C[C@H](O)CC[C@@H](O)[C@H](O)C[C@H](O)C[C@]2(O)C[C@H](O)C(C(=O)N[C@H]3C(O)O[C@H](CO)[C@H](O)[C@@H]3O)C(C[C@@H](OC3O[C@H](C)[C@@H](O)[C@H](N)[C@@H]3O)/C=C/C=C/C=C/C=C/C=C/C=C/C=C/[C@H](C)[C@H]1O)O2` (stereo partly shown) [Compound 124] showed an MIC (C. albicans) of 1 µg/mL (≈ 0.921 µM) and an NLD acute mice [1] of 16 mg/kg.
`CC1[C@H](C)OC(=O)C[C@H](O)C[C@H](O)CC[C@@H](O)[C@H](O)C[C@H](O)C[C@]2(O)C[C@H](O)C(C(=O)N3CCN(C)CC3)C(C[C@@H](OC3O[C@H](C)[C@@H](O)[C@H](NC[C@@]4(O)OC[C@@H](O)[C@@H](OC5O[C@H](CO)[C@H](O)[C@H](O)[C@H]5O)[C@@H]4O)[C@@H]3O)/C=C/C=C/C=C/C=C/C=C/C=C/C=C/[C@H](C)[C@H]1O)O2` (stereo partly shown) [Compound 146] showed an MIC (C. albicans) of 2 µg/mL (≈ 1.5 µM) and an NLD acute mice [1] of under 7.5 mg/kg.
For `CC1[C@H](C)OC(=O)C[C@H](O)C[C@H](O)CC[C@@H](O)[C@H](O)C[C@H](O)C[C@]2(O)C[C@H](O)C(C(=O)NCC(O)C(O)C(O)C(O)CO)C(C[C@@H](OC3O[C@H](C)[C@@H](O)[C@H](N)[C@@H]3O)/C=C/C=C/C=C/C=C/C=C/C=C/C=C/[C@H](C)[C@H]1O)O2` (stereo partly shown) [Compound 126], the MIC (C. albicans) was 3 µg/mL (≈ 2.76 µM).
`CC1[C@H](C)OC(=O)C[C@H](O)C[C@H](O)CC[C@@H](O)[C@H](O)C[C@H](O)C[C@]2(O)C[C@H](O)C(C(=O)N3CCN(CCO)CC3)C(C[C@@H](OC3O[C@H](C)[C@@H](O)[C@H](NC[C@@]4(O)OC[C@@H](O)[C@@H](OC5O[C@H](CO)[C@H](O)[C@H](O)[C@H]5O)[C@@H]4O)[C@@H]3O)/C=C/C=C/C=C/C=C/C=C/C=C/C=C/[C@H](C)[C@H]1O)O2` (stereo partly shown) [Compound 147] gave an MIC (C. albicans) of 2 µg/mL (≈ 1.47 µM) and an NLD acute mice [1] of under 7.5 mg/kg.
Molecule `CC1[C@H](C)OC(=O)C[C@H](O)C[C@H](O)CC[C@@H](O)[C@H](O)C[C@H](O)C[C@]2(O)C[C@H](O)C(C(=O)NCCc3ccccn3)C(C[C@@H](OC3O[C@H](C)[C@@H](O)[C@H](NC[C@@]4(O)OC[C@@H](O)[C@@H](OC5O[C@H](CO)[C@@H](O)[C@H](O)[C@H]5O)[C@@H]4O)[C@@H]3O)/C=C/C=C/C=C/C=C/C=C/C=C/C=C/[C@H](C)[C@H]1O)O2` (stereo partly shown) [Compound 116] has an MIC (C. albicans) of 8 µg/mL (≈ 5.91 µM).
`Cc1cc(NC(=O)C2C3C[C@@H](OC4O[C@H](C)[C@@H](O)[C@H](NC[C@@]5(O)OC[C@@H](O)[C@@H](O)[C@@H]5O)[C@@H]4O)/C=C/C=C/C=C/C=C/C=C/C=C/C=C/[C@H](C)[C@@H](O)C(C)[C@H](C)OC(=O)C[C@H](O)C[C@H](O)CC[C@@H](O)[C@H](O)C[C@H](O)C[C@](O)(C[C@@H]2O)O3)no1` (stereo partly shown) [Compound 102] showed an MIC (C. albicans) of 2.7 µg/mL (≈ 2.31 µM).
Molecule `CC1[C@H](C)OC(=O)C[C@H](O)C[C@H](O)CC[C@@H](O)[C@H](O)C[C@H](O)C[C@]2(O)C[C@H](O)C(C(=O)NN3CCN(C)CC3)C(C[C@@H](OC3O[C@H](C)[C@@H](O)[C@H](NC[C@@]4(O)OC[C@@H](O)[C@H](O)[C@@H]4O)[C@@H]3O)/C=C/C=C/C=C/C=C/C=C/C=C/C=C/[C@H](C)[C@H]1O)O2` (stereo partly shown) [Compound 108] has an MIC (C. albicans) of 4 µg/mL (≈ 3.38 µM).
With `CC1[C@H](C)OC(=O)C[C@H](O)C[C@H](O)CC[C@@H](O)[C@H](O)C[C@H](O)C[C@]2(O)C[C@H](O)C(C(=O)NN3CCN(C)CC3)C(C[C@@H](OC3O[C@H](C)[C@@H](O)[C@H](NC[C@@]4(O)OC[C@@H](O)[C@@H](O)[C@@H]4O)[C@@H]3O)/C=C/C=C/C=C/C=C/C=C/C=C/C=C/[C@H](C)[C@H]1O)O2` (stereo partly shown) [Compound 100] the MIC (C. albicans) was 2 µg/mL (≈ 1.69 µM).
In the case of `CC1[C@H](C)OC(=O)C[C@H](O)C[C@H](O)CC[C@@H](O)[C@H](O)C[C@H](O)C[C@]2(O)C[C@H](O)C(C(=O)N[C@H]3C(O)O[C@H](CO)[C@@H](O)[C@@H]3O)C(C[C@@H](OC3O[C@H](C)[C@@H](O)[C@H](N)[C@@H]3O)/C=C/C=C/C=C/C=C/C=C/C=C/C=C/[C@H](C)[C@H]1O)O2` (stereo partly shown) [Compound 123], the MIC (C. albicans) was 5.3 µg/mL (≈ 4.88 µM) and the NLD acute mice [1] was 32 mg/kg.
Molecule `CC1[C@H](C)OC(=O)C[C@H](O)C[C@H](O)CC[C@@H](O)[C@H](O)C[C@H](O)C[C@]2(O)C[C@H](O)C(C(=O)NCCc3cccs3)C(C[C@@H](OC3O[C@H](C)[C@@H](O)[C@H](NC[C@@]4(O)OC[C@@H](O)[C@@H](OC5O[C@H](CO)[C@@H](O)[C@H](O)[C@H]5O)[C@@H]4O)[C@@H]3O)/C=C/C=C/C=C/C=C/C=C/C=C/C=C/[C@H](C)[C@H]1O)O2` (stereo partly shown) [Compound 121] has an MIC (C. albicans) of 8 µg/mL (≈ 5.89 µM).
In the case of `CC1[C@H](C)OC(=O)C[C@H](O)C[C@H](O)CC[C@@H](O)[C@H](O)C[C@H](O)C[C@]2(O)C[C@H](O)C(C(=O)NCCc3ccccn3)C(C[C@@H](OC3O[C@H](C)[C@@H](O)[C@H](NC[C@@]4(O)OC[C@@H](O)[C@@H](O)[C@@H]4O)[C@@H]3O)/C=C/C=C/C=C/C=C/C=C/C=C/C=C/[C@H](C)[C@H]1O)O2` (stereo partly shown) [Compound 101], the MIC (C. albicans) was 4 µg/mL (≈ 3.36 µM).

— patent US6664241B2, “Water-soluble amide derivatives of polyene macrolides and preparation and uses thereof” (Micrologix Biotech Inc., priority 2000, dated 2003)
